Laboratory results from article PMC12226733, “Evolution of iGluR ligand specificity, polyamine regulation, and ion selectivity inferred from a placozoan epsilon receptor” (Communications Biology, 2025).
Like-named read-outs stand apart in the source and are kept apart here.

What was measured:
[1] = target: T1, GluE1αA wildtype receptor (Trichoplax adhaerens, UniProt B3SAW0); details: wt
T1 sequence (B3SAW0 1-341): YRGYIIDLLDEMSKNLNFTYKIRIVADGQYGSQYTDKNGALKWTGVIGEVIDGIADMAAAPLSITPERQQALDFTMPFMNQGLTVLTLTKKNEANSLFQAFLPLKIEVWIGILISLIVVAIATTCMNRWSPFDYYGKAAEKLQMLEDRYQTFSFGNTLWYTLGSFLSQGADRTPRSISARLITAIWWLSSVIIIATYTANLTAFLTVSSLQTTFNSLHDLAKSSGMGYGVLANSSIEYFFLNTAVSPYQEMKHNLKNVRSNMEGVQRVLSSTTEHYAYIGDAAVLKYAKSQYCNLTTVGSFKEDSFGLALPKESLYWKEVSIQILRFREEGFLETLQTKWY
From the text: (§1) The cDNA of the T. adhaerens GluE1αA receptor was cloned into the mammalian expression vector pIRES2-EGFP, using a 5’ nested primer that inserted a mammalian consensus Kozak sequence of […] (Supplementary Table 5). Several mutants/variants of this receptor where also prepared via site directed mutagenesis using standard procedures and primers listed in Supplementary Table 5. For electrophysiological comparisons, we commissioned GenScript (USA) to synthesize the cDNA of the human GluA2 […] receptor (NCBI accession number NP_001077088.2), which was cloned into the pIRES2-EGFP vector with a Kozak sequence flanking the start codon and restriction enzymes SalI and BamHI at the 5’ and 3’ ends of the cDNA, respectively. Receptor cDNAs in the various pIRES2 constructs were transfected into Chinese Hamster Ovary-K1 (CHO-K1; Sigma) cells cultured in Dulbecco’s Modified Eagle Medium Nutrient Mixture F-12 (DMEM/F12) supplemented with 10% Fetal Bovine Serum (FBS) and 1% penicillin-streptomycin at 37°C. Transfections were done with 2 μg of plasmid vector using the transfecting reagent PolyJet^TM (SignaGen Laboratories, USA) according to the manufacturer’s instructions and plated onto glass coverslips in 35 mm dishes the next day. Transfected cells were incubated at 28°C for 2 to 4 days, then coverslips were transferred to a new 60 mm dish with 5 mL of external recording solution. […] Agonists and pharmacological compounds used in this study were dissolved in corresponding external solutions. […] Patch pipettes were pulled using a P-1000 micropipette puller (Sutter, USA), from thick-walled borosilicate tubing (1.5 and 0.86 outer and inner diameter, respectively), to a resistance of between 1 and 6 megaohms.

GluE1αA D646A variant = system: GluE1αA D646A variant
From the text: as §1

SMILES: NCCCNCCCCNCCCN [spermine]
- normalized current elicited by 3 mM glycine with co-applied spermine, Avg ([1]; spermine 200 µM extracellular): 0.8673
- normalized current elicited by 3 mM glycine with co-applied spermine, Avg ([1]; spermine 1000 µM extracellular): 0.8213
- reduction in peak inward current (percent block) (GluE1αA D646A variant; 200 µM extracellular spermine): 14.0 ± 1.1%
- reduction in peak inward current (GluE1αA D646A variant; 1000 µM extracellular spermine): 40.2 ± 3.4%
- normalized current elicited by 3 mM glycine with co-applied spermine, Avg (GluE1αA D646A variant; spermine 200 µM extracellular): 0.8603
- normalized current elicited by 3 mM glycine with co-applied spermine, Avg (GluE1αA D646A variant; spermine 1000 µM extracellular): 0.5979
